Measurements: patent publication US7981444B2, “Dendritic polymers with enhanced amplification and interior functionality” (Dendritic Nanotechnologies, Inc., priority 2004, dated 2011)

What was measured:
[1] = Thermal Gravimetric Analysis (TGA); type: physicochemical; settings: in nitrogen, scan 20 to 520° C., ramp rate 10 degrees per minute
Protocol: Thermal Gravimetric Analysis (TGA)
Thermal gravimetric data were obtained on a Universal V3.9A TA Instrument. Temperature scan range was from 20 to 520° C. with a ramp rate of 10 degrees per minute. Sample sizes were typically about 10 mg of solid product.
In comparison, curves 1 and 2 show the thermal degradation profiles of products of Examples 7D and 13, respectively.
TGA Under Same Conditions as Comparative Example I for Various Dendrimers of Formula (I) and PAMAM

[2] = cited from earlier work

| Onset Temp. (° C.) [1] [°C] | Temp. (° C.) at 50% wt loss [1] [°C] | Temp. (° C.) at Residue [1] | Compound | pKa value [2] |
| --- | --- | --- | --- | --- |
| 320 | 407 | 500+ ° C. | COC(=O)C1CC(=O)N(CCN(CCN2CC(C(=O)OC)CC2=O)CC(O)Cn2c(=O)n(CC(O)CN(CCN3CC(C(=O)OC)CC3=O)CCN3CC(C(=O)OC)CC3=O)c(=O)n(CC(O)CN(CCN3CC(C(=O)OC)CC3=O)CCN3CC(C(=O)OC)CC3=O)c2=O)C1 (stereo not shown) [Example 33] | – |
| – | – | – | tris(hydroxymethyl)amino methane | 8.10 |
